1 compound from paper PMC10094418, “Butein Inhibits Cell Growth by Blocking the IL-6/IL-6Rα Interaction in Human Ovarian Cancer and by Regulation of the IL-6/STAT3/FoxO3a Pathway” (International Journal of Molecular Sciences, 2023) can be followed below.

The test system of experiment [1] is IL-6 signaling in HEK-Blue™ IL-6 cells. The experiment is described as follows: IL-6 inhibitory bioassay with HEK-Blue IL-6 cells (SEAP activity). The experiment is classed as cell-based, human. Conditions: 10 ng/mL IL-6, 24 h. Here is the method: HEK-Blue™ IL-6 cells were obtained from InvivoGen (San Diego, CA, USA). In a 96-well plate, 20 μL butein at various concentrations (0, 3.125, 6.25, 12.5, 25, and 50 μM) were added to the cell suspension (50,000 cells/200 μL). Following this, the recombinant human IL-6 (BioLegend, San Diego, CA, USA) was administered at 10 ng/mL. After 24 h, 20 μL of the IL-6-treated cell suspension was added to 180 μL of QUANTI-Blue™ Solution (JnvivoGen, San Diego, CA, USA) in a new 96-well plate. After 2 h of incubation at 37 °C, the spectrophotometric absorbance between 620 and 655 nm was recorded.

For another experiment, the system named is SKOV3 cells. The experiment is described as follows: Cell viability by MTT assay, SKOV3. Conditions: Homo sapiens, SK-OV-3, 48 h. The experiment is classed as cell-based. As for the experimental part:
A2780 and SKOV3 cell lines were purchased from the European Collection of Cell Cultures (ECACC, London, UK) and Korean Cell Line Bank (KCLB, Seoul, Republic of Korea) respectively. Each cell line was seeded in a 96-well plate at an appropriate cell number (3000 cells/100 μL in each well). After 24 h, butein was added to the plates at each of the following concentrations, 0, 3.125, 6.25, 12.5, 25, and 50 μM, in triplicate in the presence of serum medium. After 48 h, 100 μL of […] (Sigma-Aldrich, St. Louis, MO, USA) solubilizing solution was added to each well and incubated for 4 h. The solution was then aspirated, and 100 μL of DMSO was added for cell lysis. The spectrophotometric absorbance was measured at 540 nm. Half of the maximum inhibitory concentration (IC50) was determined using GraphPad Prism software (version 7.0).
On the technique in general: Tetrazolium assays rely on reduction of a dye to a coloured formazan, in cell work by metabolically active cells.

On to `O=C(/C=C/c1ccc(O)c(O)c1)c1ccc(O)cc1O` [butein], for which the “Inhibition of SEAP signal of HEK-Blue IL-6” value in experiment [1] (0-50 μM) is “maximum inhibition”. The “LogIC50, HEK-Blue IL-6 SEAP activity” value in experiment [1] is recorded as 1.049±0.524 μM. Also, the IC50 (in general, the midpoint of a concentration-inhibition curve) in experiment [1] (Homo sapiens, HEK-Blue IL-6) is 12.9 ± 0.15 µM; in the experiment with SKOV3 cells it was 175 ± 61.9 µM.
